Literature values, collected in patent US20240263147A1, “CARDIAC ORGANOID AND ANTI-ELECTRO-MITOCHONDRIAL DESYNCHRONIZATION THERAPY” (YISSUM RESEARCH DEVELOPMENT COMPANY OF THE HEBREW …, priority 2021, published 2024).

Details: known cardiac side effects of therapeutic agents; cited from earlier work

Compound | Side effect (cardiac)
Cc1nc(Nc2ncc(C(=O)Nc3c(C)cccc3Cl)s2)cc(N2CCN(CCO)CC2)n1 [Dasatinib] | heart failure
CCCN1C[C@H](CSC)C[C@@H]2c3cccc4[nH]cc(c34)C[C@H]21 [Pergolide] | valvular heart disease
CCN(CC)CC(=O)Nc1c(C)cccc1C [Lidocaine] | bradycardia, cardiac arrest
COc1cc(N)c(Cl)cc1C(=O)NC1CCN(CCCOc2ccc(F)cc2)CC1OC (centres unmarked) [Cispapride] | ventricular arrhythmia, QT prolongation, TdP, cardiac arrest
CC(CN(C)C)C(C)(O)Cc1ccc(Cl)cc1 (centres unmarked) [Clobutinol] | QT prolongation
Cn1c(=O)cc(N2CCC[C@@H](N)C2)n(Cc2ccccc2C#N)c1=O [Alogliptin] | heart failure
COC(=O)[C@H]1[C@@H](OC(=O)c2ccccc2)C[C@@H]2CC[C@H]1N2C [Cocaine] | left ventricular hypertrophy, arrhythmias
CS(=O)(=O)c1ccc(C2=C(c3ccccc3)C(=O)OC2)cc1 [Rofecoxib] | myocardial infarction
O=C1Cc2cc(CCN3CCN(c4nsc5ccccc45)CC3)c(Cl)cc2N1 [Ziprasidone] | QT prolongation, TdP, sudden cardiac death
COc1ccc(C(=O)Nc2ccccc2CCC2CCCCN2C)cc1 (centres unmarked) [Encainide] | QT prolongation, TdP
CCCCCNC(=N)N/N=C/c1c[nH]c2ccc(OC)cc12 [Tegaserod] | Ischemia
CNC(=O)c1cc(Oc2ccc(NC(=O)Nc3ccc(Cl)c(C(F)(F)F)c3)cc2)ccn1 [Sorafenib] | heart failure, myocardial ischemia, QT prolongation
CC(C)(N)Cc1ccccc1 [Phentermine] | valvular heart disease
C[C@@H]1CN(c2c(F)c(N)c3c(=O)c(C(=O)O)cn(C4CC4)c3c2F)C[C@H](C)N1 [Sparfloxacin] | QT prolongation
COc1ccc2cc([C@H](C)C(=O)O)ccc2c1 [Naproxen] | myocardial infarction
COc1ccc2[nH]c([S+]([O-])Cc3ncc(C)c(OC)c3C)nc2c1 (centres unmarked) [Omeprazole] | acute myocardial infarction, heart failure
N=C(N)c1ccc(OCCCCCOc2ccc(C(=N)N)cc2)cc1 [Pentamidine] | QT prolongation, arrhythmias
COc1ccc(C(CN(C)C)C2(O)CCCCC2)cc1 (centres unmarked) [Venlafaxine] | QT prolongation, arrhythmias
Nivolumab | lethal myocarditis
COc1cc2c(Nc3ccc(Br)cc3F)ncnc2cc1OCC1CCN(C)CC1 [Vandetanib] | long QT
CC(CC(c1ccccc1)c1ccccc1)NC(C)(C)C (centres unmarked) [Terodiline] | ventricular tachycardia, cardiac death
CC(=O)O[C@@]12CO[C@@H]1C[C@H](O)[C@@]1(C)C(=O)[C@H](O)C3=C(C)[C@@H](OC(=O)[C@H](O)[C@@H](NC(=O)OC(C)(C)C)c4ccccc4)C[C@@](O)([C@@H](OC(=O)c4ccccc4)[C@H]21)C3(C)C [Docetaxel] | bradycardia, myocardial ischemia, heart failure
CC(C)C[C@H](NC(=O)[C@H](Cc1ccccc1)NC(=O)c1cnccn1)B(O)O [Bortezomib] | heart failure, arrhythmia
CN(CCOc1ccc(CC2SC(=O)NC2=O)cc1)c1ccccn1 (centres unmarked) [Rosiglitazone] | heart failure

Compound | Side effect (cardiac)
CC[C@H]1OC(=O)[C@H](C)[C@@H](O[C@H]2C[C@@](C)(OC)[C@@H](O)[C@H](C)O2)[C@H](C)[C@@H](O[C@@H]2O[C@H](C)C[C@H](N(C)C)[C@H]2O)[C@](C)(OC)C[C@@H](C)C(=O)[C@H](C)[C@@H](O)[C@]1(C)O [Clarithromycin] | QT prolongation, myocardial infarction, arrhythmias, cardiac death
CCN[C@@H](C)Cc1cccc(C(F)(F)F)c1 [Dexfenfluramine] | valvular heart disease
CC(C)(N)Cc1ccc(Cl)cc1 [Chlorphentermine] | pulmonary heart disease
CC(=O)[C@]1(O)Cc2c(O)c3c(c(O)c2[C@@H](O[C@H]2C[C@H](N)[C@H](O)[C@H](C)O2)C1)C(=O)c1ccccc1C3=O [Idarubicin] | arrhythmias, heart failure
O=C1NCCN1CCN1CCC(c2cn(-c3ccc(F)cc3)c3ccc(Cl)cc23)CC1 [Sertindole] | QT prolongation, TdP, sudden cardiac death
COc1cc(OC)c(C(=O)CCCN2CCCC2)c(OC)c1 [Buflomedil] | QT prolongation, cardiac arrest
N.N.[Cl][Pt][Cl] [Cisplatin] | arrhythmias, myocardial ischemia, heart failure
CC[C@@H](CO)NC(=O)[C@@H]1C=C2c3cccc4c3c(cn4C)C[C@H]2N(C)C1 [Methysergide] | valvular heart disease
CC(C)OC(=O)[C@H](C)N[P@](=O)(OC[C@H]1O[C@@H](n2ccc(=O)[nH]c2=O)[C@](C)(F)[C@@H]1O)Oc1ccccc1 [Sofobuvir] | Bradycardia
CN1C[C@H](C(=O)N[C@]2(C)O[C@@]3(O)[C@@H]4CCCN4C(=O)[C@H](Cc4ccccc4)N3C2=O)C=C2c3cccc4[nH]cc(c34)C[C@H]21 [Ergotamine] | valvular heart disease
COc1ccc(CCN2CCC(Nc3nc4ccccc4n3Cc3ccc(F)cc3)CC2)cc1 [Astemizole] | long QT syndrome, TdP
CCN(CC)CCNC(=O)c1c(C)[nH]c(/C=C2\C(=O)Nc3ccc(F)cc32)c1C [Sunitinib] | long QT, left ejection fraction, myocardial infarction
Arsenic trioxide | QT prolongation, tachycardia
COc1cccc2c1C(=O)c1c(O)c3c(c(O)c1C2=O)C[C@@](O)(C(=O)CO)C[C@@H]3O[C@H]1C[C@H](N)[C@H](O)[C@H](C)O1 [Doxorubicin] | arrhythmias, heart failure
Ipilimumab | lethal myocarditis
Cc1ccc(-c2ncc(Cl)cc2-c2ccc(S(C)(=O)=O)cc2)cn1 [Etoricoxib] | thrombotic events
Cc1cn([C@H]2C[C@H](N=[N+]=[N-])[C@@H](CO)O2)c(=O)[nH]c1=O [Azidothymidine] | dilated cardiomyopathy
CCCCN1CCCCC1C(=O)Nc1c(C)cccc1C (centres unmarked) [Bupivacaine] | ventricular arrhythmias, myocardial depression
COc1cccc2c1C(=O)c1c(O)c3c(c(O)c1C2=O)C[C@@](O)(C(C)=O)C[C@@H]3O[C@H]1C[C@H](N)[C@H](O)[C@H](C)O1 [Daunorubicin] | arrhythmias, heart failure
O=c1[nH]cc(F)c(=O)[nH]1 [5-fluorouracil] | arrhythmias, myocardial ischemia, heart failure
COCC(=O)O[C@]1(CCN(C)CCCc2nc3ccccc3[nH]2)CCc2cc(F)ccc2[C@@H]1C(C)C [Mibefradil] | QT prolongation
CCNC(C)Cc1cccc(C(F)(F)F)c1 (centres unmarked) [Fenfluramine] | valvular heart disease
CS(=O)(=O)CCNCc1ccc(-c2ccc3ncnc(Nc4ccc(OCc5cccc(F)c5)c(Cl)c4)c3c2)o1 [Lapatinib] | left ventricular ejection fraction, congestive heart failure
